Assay results: patent US20100009934A1, “BETA ADRENERGIC RECEPTOR AGONISTS FOR THE TREATMENT OF B-CELL PROLIFERATIVE DISORDERS” (CombinatoRx, Incorporated, priority 2008, published 2010)
“And” between values parts separate entries of the source, which are not always exact repeats. Equal values may be shown once. Read-outs that look alike come from different tables or passages of the source.

Key:
[1] = test system: Human Multiple Myeloma Cells (MM.1S); settings: 10 ng/ml IL-6 vs no IL-6 (Tables 52 and 53)
[2] = test system: multiple myeloma tumor cells from patients; test: MTT cell viability assay, multiple myeloma patient tumor cells; settings: Homo sapiens, 48 h
Excerpt: Tumor cells were obtained via bone marrow aspirates and affinity selected using CD138-linked magnetic beads.

RPMI-8226 cells = settings: 2 nM salmeterol for 5 hours, soft agar, three weeks; 740 colonies without drugs
Method: The effect of BAR agonists on cells grown in soft agar was also determined. This approach allows the measurement of long term cell viability after single agent or combination treatment. […] Cells were washed and plated in soft agar. After three weeks colonies were counted to determine cell viability.

[3] = test system: human multiple myeloma xenografts (MM1S); test: MM.1S xenograft model in SCID mice; assay type: in vivo, mouse; settings: Dex 1 mg/kg or salmeterol 10 mg/kg, subcutaneous daily
Method: The human multiple myeloma cell line MM1S was injected subcutaneously into the flanks of SCID mice. Five days following the injection of MM1S cells, animals were randomized into the following four treatment groups (n=6-7) based on tumor size.
(§1) Group 1—Vehicle (90% PBS+10% EtOH)
The prepared test, positive, and negative control substances were administered via subcutaneous injection daily for up to 85 Days. During the treatment period, tumor volume and animal body weights were measured 3 times per week (Monday, Wednesday and Friday). The animals were removed from the study if there was overall poor body condition, tumor volume above 3000 mm^3, body weight loss greater than or equal to 20% or ulcerated tumors.
The slope of the tumor volume growth of each animal was calculated from the initial study day until the day each animal was removed from the study. From these slopes the mean change in tumor volume per study day was calculated.

[4] = test system: Human Multiple Myeloma Cells (ANBL-6); test: Anti-proliferation assay (ATPLite, 72 hours), ANBL-6; settings: for Antiproliferative Activity: Salmeterol 0.00000506 μM
[5] = test system: Human Multiple Myeloma Cells (MM.1S); test: cells; settings: MM1.S
[6] = test system: Human Multiple Myeloma Cells (MM.1S); test: Anti-proliferation assay (ATPLite, 72 hours), MM.1S
MM.1S cells [7] = test: Annexin V/PI FACS assay of control MM.1S and cells cultured one month with salmeterol or salbutamol; assay type: cell-based, human; settings: 250 pM salmeterol
Method: Forty eight hours later, the percent of cells positive for Annexin V and propidium iodide (PI) was determined using FACS (FIG. 5).

[8] = test system: Diffuse Large B-Cell Lymphoma Cell Line OCI-Ly10; test: Anti-proliferation assay (ATPLite, 72 hours), OCI-ly10; assay type: cell-based; settings: DEX μM r7-r15: 0.101, 0.033666667, 0.011222222, 0.003740741, 0.001246914, 0.000415638, 0.000138546, 0.000046182, 0
Excerpt: Combinations were ranked initially by Additivity Excess Volume, which is defined as ADD Volume=ΣCX, CY (Idata−ILoewe), where ILoewe(CX, CY) is the inhibition that satisfies (CX/ECX)+(CY/ECY)=1, and ECX,Y are the effective concentrations at ILoewe for the single agent curves.

[9] = test system: RPMI-8226 multiple myeloma (MM) xenograft; settings: Day 19; 10 mg/kg salmeterol, 0.5 mg/kg bortezomib, or both
Method: Dexamethasone was administered by intraperitoneal (IP) injection daily for thirty-six treatments (QD×36). Bortezomib was injected intravenously (IV) every third day for six treatments (Q3D×6).
as §1
Significant endpoints included mean tumor growth inhibition (TGI) or regression, animal weight loss, and potential toxicity. […] Animals were implanted with cancer cells harvested from tissue culture and allowed to establish tumors in SCID mice. Treatment initiated when the mean tumor volume reached 137 mm^3 in size.

MM.1S cells [10] = test: Annexin V / propidium iodide apoptosis assay, MM.1S; assay type: cell-based, human; settings: 0.3 nM salmeterol, 72 hours (FIG. 2)
Method: Effects on cell viability were determined by measuring the percent of cells that were annexin V positive (an early marker for apoptosis) and by measuring the percent of cells propidium iodide (PI) positive, an indicator that cellular membranes are compromised and a marker of cell death.

[11] = test system: Human Multiple Myeloma Cells (EJM); test: Anti-proliferation assay (ATPLite, 72 hours), EJM; settings: DEX μM r7-r15: 2.03, 0.675, 0.225, 0.075, 0.025, 0.00834, 0.00278, 0.00093, 0
[12] = read-out: Reduction in Cell Viability
[13] = read-out: percent inhibition of cell proliferation, +10 ng/ml IL-6, Salmeterol […], DEX (μM) by row: r9 0.15, r10 0.076, r11 0.038, r12 0.019, r13 0.0096, r14 0
[14] = read-out: percent inhibition of cell proliferation, salmeterol […], 10 ng/mL IL-6
[15] = read-out: percent inhibition of cell proliferation, salmeterol […], no IL-6
[16] = Homo sapiens, MM1.S, read-out: percent inhibition of cell proliferation

For `OCc1cc(C(O)CNCCCCCCOCCCCc2ccccc2)ccc1O` (centres unmarked) [salmeterol], which “effect of IL-6 on antiproliferative activity” value [1] is on record?
The value was “increased at each concentration tested”.

What about the cytotoxicity at 12.5 pM [2, 12] of the same compound?
Its cytotoxicity at 12.5 pM is -0.2%.

And the cytotoxicity at 25 pM [2, 12]?
The cytotoxicity at 25 pM was 12%.

What about the cytotoxicity at 50 pM [2, 12] of the same compound?
Its cytotoxicity at 50 pM is 13%.

And the cytotoxicity at 0.0001 µM [2, 12]?
Its cytotoxicity at 0.0001 µM is 35%.

And the cytotoxicity at 0.0002 µM [2, 12]?
Its cytotoxicity at 0.0002 µM is 40%.

And the cytotoxicity at 0.0004 µM [2, 12]?
The cytotoxicity at 0.0004 µM was 38%.

What about the cytotoxicity at 0.0008 µM [2, 12] of the same compound?
Its cytotoxicity at 0.0008 µM is 44%.

And the cytotoxicity at 0.0004 µM ([2]; read-out: activity (reduction in cell viability))?
The cytotoxicity at 0.0004 µM was 38%.

And the viability at 0.001 µM ([2]; read-out: tumor cell viability)?
The viability at 0.001 µM was 80%.

What about the “colony number per 10,000 cells plated” value (RPMI-8226 cells) of the same compound?
The value was 360 colonies.

What about the “study day by which all animals of the group were removed” value [3] of the same compound?
Its value is at most 43 study day.

And the “Antiproliferative Activity” value ([4]; DEX μM r7-r15: 2.03, 0.675, 0.225, 0.075, 0.025, 0.00834, 0.00278, 0.00093, 0)?
Its value is 18.6.

And the “Antiproliferative Activity” value ([4]; LEN μM r7-r15: 4.04, 2.02, 1.01, 0.505, 0.253, 0.126, 0.0632, 0.0316, 0)?
Its value is 34.7.

What about the “percent inhibition of cell proliferation” value ([4]; Trequinsin 0 μM (single agent), SAL (μM): 0.0203, 0.0101, 0.00506, 0.00253, 0.00127, 0.000633, 0.000316, 0.000158) of the same compound?
Its value is 54% and 55.7% and 58.4% and 54.8% and 50.7% and 58% and 54.7% and 55%.

And the inhibition at 32 pM [5, 13]?
Its inhibition at 32 pM is 22%.

And the inhibition at […] [5, 13]?
The inhibition at […] was 52%.

What about the inhibition at 32 pM ([5]; read-out: percent inhibition of cell proliferation, no IL-6, Salmeterol […], DEX (μM) by row: r9 0.15, r10 0.076, r11 0.038, r12 0.019, r13 0.0096, r14 0) of the same compound?
The inhibition at 32 pM was 21%.

What about the inhibition at 100 fM ([5]; read-out: percent inhibition of cell proliferation, salmeterol 0.1 pM, 10 ng/mL IL-6) of the same compound?
Its inhibition at 100 fM is 19%.

What about the inhibition at 100 fM ([5]; read-out: percent inhibition of cell proliferation, salmeterol 0.1 pM, no IL-6) of the same compound?
Its inhibition at 100 fM is 11%.

What about the inhibition at 200 fM ([5]; read-out: percent inhibition of cell proliferation, salmeterol 0.2 pM, 10 ng/mL IL-6) of the same compound?
The inhibition at 200 fM was 30%.

And the inhibition at 200 fM ([5]; read-out: percent inhibition of cell proliferation, salmeterol 0.2 pM, no IL-6)?
Its inhibition at 200 fM is 25%.

And the inhibition at 400 fM ([5]; read-out: percent inhibition of cell proliferation, salmeterol 0.4 pM, 10 ng/mL IL-6)?
Its inhibition at 400 fM is 36%.

What about the inhibition at 400 fM ([5]; read-out: percent inhibition of cell proliferation, salmeterol 0.4 pM, no IL-6) of the same compound?
The inhibition at 400 fM was 30%.

What about the inhibition at […] ([5]; read-out: percent inhibition of cell proliferation, salmeterol 160 pM, 10 ng/mL IL-6) of the same compound?
Its inhibition at […] is 59%.

What about the inhibition at […] ([5]; read-out: percent inhibition of cell proliferation, salmeterol 160 pM, no IL-6) of the same compound?
The inhibition at […] was 50%.

What about the inhibition at […] ([5]; read-out: percent inhibition of cell proliferation, salmeterol 320 pM, 10 ng/mL IL-6) of the same compound?
The inhibition at […] was 66%.

What about the inhibition at […] ([5]; read-out: percent inhibition of cell proliferation, salmeterol 320 pM, no IL-6) of the same compound?
Its inhibition at […] is 59%.

And the inhibition at 25 fM [5, 14]?
Its inhibition at 25 fM is 2.8%.

And the inhibition at 51 fM [5, 14]?
Its inhibition at 51 fM is 8.6%.

What about the inhibition at 810 fM [5, 14] of the same compound?
Its inhibition at 810 fM is 54%.

What about the inhibition at 25 fM [5, 15] of the same compound?
The inhibition at 25 fM was 5%.

And the inhibition at 51 fM [5, 15]?
Its inhibition at 51 fM is 6.7%.

And the inhibition at 810 fM [5, 15]?
Its inhibition at 810 fM is 43%.

And the inhibition at 9.1 pM [6, 16]?
Its inhibition at 9.1 pM is 4.9%.

What about the inhibition at 27 pM [6, 16] of the same compound?
Its inhibition at 27 pM is 7.1%.

And the inhibition at 80 pM [6, 16]?
The inhibition at 80 pM was 25%.

And the inhibition at 0.02 µM [6, 16]?
The inhibition at 0.02 µM was 59%.

What about the “percent inhibition of cell proliferation” value ([6]; SAHA 0 μM (single agent), Salmeterol (nM) by row: r7 0.011, r8 0.0036, r9 0.0012, r10 0.0004, r11 0.00013, r12 0.000045) of the same compound?
Its value is 70%.

What about the “Antiproliferative Activity” value ([6]; Salmeterol 0.00000506 μM, BORT μM r7-r15: 0.0405, 0.0203, 0.0101, 0.00506, 0.00253, 0.00127, 0.000633, 0.000316, 0) of the same compound?
Its value is 16.9%.

What about the “sensitivity (Annexin V/PI)” value (MM.1S cells [7]; cells treated for one month with salmeterol or salbutamol, 48 hours) of the same compound?
Its value is “not sensitive”.

What about the “Annexin V/PI+ cells” value (MM.1S cells [7]; control cells, 48 hours (FIG. 5)) of the same compound?
The value was 20%.

And the “Antiproliferative Activity” value ([8]; Salmeterol 0.001055 μM)?
The value was 5.9.

What about the “Antiproliferative Activity” value ([8]; Salmeterol 0.003165 μM) of the same compound?
The value was 6.3.

What about the “Antiproliferative Activity” value ([8]; Salmeterol 0.009494 μM) of the same compound?
The value was 9.1.

And the “Antiproliferative Activity” value ([8]; Salmeterol 0.028481 μM)?
The value was −0.6.

And the “Antiproliferative Activity” value ([8]; Salmeterol 0.085444 μM)?
The value was 6.3.

What about the “Antiproliferative Activity” value ([8]; Salmeterol 0.256333 μM) of the same compound?
The value was 27.

And the “tumor growth inhibition (TGI)” value [9]?
The value was 37%.

What about the “induction of MM.1S cell apoptosis” value (MM.1S cells [10]) of the same compound?
Its value is about 40%.

What about the “Antiproliferative Activity” value ([11]; Salmeterol 0.000158 μM) of the same compound?
Its value is 38.1.

And the “Antiproliferative Activity” value ([11]; Salmeterol 0.000316 μM)?
The value was 47.7.

What about the “Antiproliferative Activity” value ([11]; Salmeterol 0.00506 μM) of the same compound?
The value was 47.9.
